According to ChEMBL document CHEMBL5291721, “A preclinical secondary pharmacology resource illuminates target-adverse drug reaction associations of marketed drugs” (Nat Commun, 2023):

Legend:
[1] = biological target: Gamma-aminobutyric acid receptor subunit alpha-1/alpha-2/beta-2/gamma-2 (Homo sapiens, UniProt P14867+P18507+P47869+P47870); type: functional, cell-based
[2] = biological target: Sodium channel protein type 5 subunit alpha (Homo sapiens, UniProt Q14524); type: functional, cell-based
[3] = biological target: Neurotensin receptor type 1 (Homo sapiens, UniProt P30989)
[4] = biological target: T1, Neuropeptide Y receptor type 2 (Homo sapiens, UniProt P49146)
T1 sequence (P49146 whole entry): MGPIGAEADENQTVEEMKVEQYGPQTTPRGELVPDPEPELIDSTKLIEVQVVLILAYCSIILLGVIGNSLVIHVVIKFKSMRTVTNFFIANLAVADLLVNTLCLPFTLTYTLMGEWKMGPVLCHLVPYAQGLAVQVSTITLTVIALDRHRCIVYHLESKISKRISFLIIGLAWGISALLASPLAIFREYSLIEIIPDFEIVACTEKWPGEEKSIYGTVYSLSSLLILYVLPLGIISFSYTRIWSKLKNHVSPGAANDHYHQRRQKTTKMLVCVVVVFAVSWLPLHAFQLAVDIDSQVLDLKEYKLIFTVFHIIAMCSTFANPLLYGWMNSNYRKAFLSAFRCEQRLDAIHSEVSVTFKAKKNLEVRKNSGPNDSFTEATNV

[5] = biological target: T2, Endothelin receptor type B (Homo sapiens, UniProt P24530)
T2 sequence (P24530 whole entry): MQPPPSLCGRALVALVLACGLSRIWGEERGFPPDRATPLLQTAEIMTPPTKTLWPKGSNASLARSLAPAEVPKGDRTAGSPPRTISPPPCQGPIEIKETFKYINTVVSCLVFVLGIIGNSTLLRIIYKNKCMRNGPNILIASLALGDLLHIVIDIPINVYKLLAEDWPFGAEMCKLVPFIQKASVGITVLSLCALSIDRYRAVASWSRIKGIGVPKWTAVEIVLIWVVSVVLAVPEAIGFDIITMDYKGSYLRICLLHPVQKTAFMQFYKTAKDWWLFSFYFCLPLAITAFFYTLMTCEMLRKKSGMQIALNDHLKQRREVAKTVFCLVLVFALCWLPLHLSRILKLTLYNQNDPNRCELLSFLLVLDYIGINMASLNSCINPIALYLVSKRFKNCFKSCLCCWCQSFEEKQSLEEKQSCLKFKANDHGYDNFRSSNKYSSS

D(1A) dopamine receptor = D(1A) dopamine receptor (Homo sapiens, UniProt P21728)
[6] = biological target: T3, Gastric inhibitory polypeptide receptor (Homo sapiens, UniProt P48546)
T3 sequence (P48546 whole entry): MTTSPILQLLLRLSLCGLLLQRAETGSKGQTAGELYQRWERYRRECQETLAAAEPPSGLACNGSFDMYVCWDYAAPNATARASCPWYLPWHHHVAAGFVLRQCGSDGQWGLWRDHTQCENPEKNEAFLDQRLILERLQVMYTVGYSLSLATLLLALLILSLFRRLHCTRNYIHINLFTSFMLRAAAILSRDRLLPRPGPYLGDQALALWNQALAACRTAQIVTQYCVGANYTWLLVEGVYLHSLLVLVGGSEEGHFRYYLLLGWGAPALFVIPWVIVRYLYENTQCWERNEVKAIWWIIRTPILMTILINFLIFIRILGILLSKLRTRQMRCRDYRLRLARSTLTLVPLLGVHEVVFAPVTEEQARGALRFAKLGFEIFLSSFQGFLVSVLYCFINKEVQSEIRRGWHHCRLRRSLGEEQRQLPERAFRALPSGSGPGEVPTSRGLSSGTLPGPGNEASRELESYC

[7] = biological target: Beta-3 adrenergic receptor (Homo sapiens, UniProt P13945)
[8] = biological target: T4, Corticotropin-releasing factor receptor 2 (Homo sapiens, UniProt Q13324)
T4 sequence (Q13324 whole entry): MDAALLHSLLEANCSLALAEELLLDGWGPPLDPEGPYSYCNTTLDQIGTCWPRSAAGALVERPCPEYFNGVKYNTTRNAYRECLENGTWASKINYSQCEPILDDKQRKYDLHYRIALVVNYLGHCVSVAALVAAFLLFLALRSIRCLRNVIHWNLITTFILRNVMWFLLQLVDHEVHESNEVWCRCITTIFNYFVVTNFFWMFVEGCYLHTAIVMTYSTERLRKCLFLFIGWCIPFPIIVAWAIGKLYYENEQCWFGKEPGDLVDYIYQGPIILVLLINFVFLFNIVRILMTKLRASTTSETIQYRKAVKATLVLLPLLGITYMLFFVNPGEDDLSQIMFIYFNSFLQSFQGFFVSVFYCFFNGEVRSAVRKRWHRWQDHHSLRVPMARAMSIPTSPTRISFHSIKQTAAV

[9] = biological target: Voltage-dependent N-type calcium channel subunit alpha-1B (Rattus norvegicus, UniProt Q02294); type: functional
Estrogen receptor beta = Estrogen receptor beta (Homo sapiens, UniProt Q92731)
Substance-P receptor = Substance-P receptor (Homo sapiens, UniProt P25103)
[10] = biological target: 5-hydroxytryptamine receptor 2B (Homo sapiens, UniProt P41595)
[11] = biological target: T5, Alpha-1A adrenergic receptor (Homo sapiens, UniProt P35348)
T5 sequence (P35348 whole entry): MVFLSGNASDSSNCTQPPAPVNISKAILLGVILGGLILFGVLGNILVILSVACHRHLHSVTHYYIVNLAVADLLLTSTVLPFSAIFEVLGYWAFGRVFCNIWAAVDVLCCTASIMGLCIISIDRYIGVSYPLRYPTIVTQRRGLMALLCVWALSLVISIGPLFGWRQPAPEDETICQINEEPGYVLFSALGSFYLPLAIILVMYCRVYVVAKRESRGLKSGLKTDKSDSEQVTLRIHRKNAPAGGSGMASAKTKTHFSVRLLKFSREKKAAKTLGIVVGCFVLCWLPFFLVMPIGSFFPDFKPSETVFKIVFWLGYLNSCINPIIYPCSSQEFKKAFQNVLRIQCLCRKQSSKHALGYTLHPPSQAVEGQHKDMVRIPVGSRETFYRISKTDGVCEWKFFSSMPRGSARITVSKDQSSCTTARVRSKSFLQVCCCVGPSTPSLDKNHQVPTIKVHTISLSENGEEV
Also: assay procedure not described here.

Substance-P receptor, sequence (P25103 whole entry): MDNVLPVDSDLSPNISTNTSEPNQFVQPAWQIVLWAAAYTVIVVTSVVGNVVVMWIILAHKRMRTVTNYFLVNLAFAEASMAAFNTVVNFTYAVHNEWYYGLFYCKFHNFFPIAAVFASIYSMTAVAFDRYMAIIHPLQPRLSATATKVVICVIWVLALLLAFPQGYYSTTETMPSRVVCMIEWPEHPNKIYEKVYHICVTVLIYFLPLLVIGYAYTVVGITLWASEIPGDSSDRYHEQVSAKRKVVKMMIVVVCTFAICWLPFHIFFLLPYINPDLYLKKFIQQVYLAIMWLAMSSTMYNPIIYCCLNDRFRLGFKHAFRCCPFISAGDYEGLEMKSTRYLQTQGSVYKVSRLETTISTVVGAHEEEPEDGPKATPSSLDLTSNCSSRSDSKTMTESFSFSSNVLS
D(1A) dopamine receptor, sequence (P21728 whole entry): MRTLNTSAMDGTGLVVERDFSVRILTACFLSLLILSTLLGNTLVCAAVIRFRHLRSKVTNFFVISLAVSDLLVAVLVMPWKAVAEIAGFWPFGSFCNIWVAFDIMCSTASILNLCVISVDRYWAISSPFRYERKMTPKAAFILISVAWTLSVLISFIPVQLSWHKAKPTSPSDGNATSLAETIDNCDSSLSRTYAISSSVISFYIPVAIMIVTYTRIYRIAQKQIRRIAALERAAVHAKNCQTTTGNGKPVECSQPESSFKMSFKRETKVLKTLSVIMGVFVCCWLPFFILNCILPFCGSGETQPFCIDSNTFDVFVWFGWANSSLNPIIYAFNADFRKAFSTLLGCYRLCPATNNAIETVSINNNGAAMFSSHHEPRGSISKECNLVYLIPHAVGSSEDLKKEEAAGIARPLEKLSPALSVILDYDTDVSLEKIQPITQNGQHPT
Voltage-dependent N-type calcium channel subunit alpha-1B, sequence (Q02294 whole entry): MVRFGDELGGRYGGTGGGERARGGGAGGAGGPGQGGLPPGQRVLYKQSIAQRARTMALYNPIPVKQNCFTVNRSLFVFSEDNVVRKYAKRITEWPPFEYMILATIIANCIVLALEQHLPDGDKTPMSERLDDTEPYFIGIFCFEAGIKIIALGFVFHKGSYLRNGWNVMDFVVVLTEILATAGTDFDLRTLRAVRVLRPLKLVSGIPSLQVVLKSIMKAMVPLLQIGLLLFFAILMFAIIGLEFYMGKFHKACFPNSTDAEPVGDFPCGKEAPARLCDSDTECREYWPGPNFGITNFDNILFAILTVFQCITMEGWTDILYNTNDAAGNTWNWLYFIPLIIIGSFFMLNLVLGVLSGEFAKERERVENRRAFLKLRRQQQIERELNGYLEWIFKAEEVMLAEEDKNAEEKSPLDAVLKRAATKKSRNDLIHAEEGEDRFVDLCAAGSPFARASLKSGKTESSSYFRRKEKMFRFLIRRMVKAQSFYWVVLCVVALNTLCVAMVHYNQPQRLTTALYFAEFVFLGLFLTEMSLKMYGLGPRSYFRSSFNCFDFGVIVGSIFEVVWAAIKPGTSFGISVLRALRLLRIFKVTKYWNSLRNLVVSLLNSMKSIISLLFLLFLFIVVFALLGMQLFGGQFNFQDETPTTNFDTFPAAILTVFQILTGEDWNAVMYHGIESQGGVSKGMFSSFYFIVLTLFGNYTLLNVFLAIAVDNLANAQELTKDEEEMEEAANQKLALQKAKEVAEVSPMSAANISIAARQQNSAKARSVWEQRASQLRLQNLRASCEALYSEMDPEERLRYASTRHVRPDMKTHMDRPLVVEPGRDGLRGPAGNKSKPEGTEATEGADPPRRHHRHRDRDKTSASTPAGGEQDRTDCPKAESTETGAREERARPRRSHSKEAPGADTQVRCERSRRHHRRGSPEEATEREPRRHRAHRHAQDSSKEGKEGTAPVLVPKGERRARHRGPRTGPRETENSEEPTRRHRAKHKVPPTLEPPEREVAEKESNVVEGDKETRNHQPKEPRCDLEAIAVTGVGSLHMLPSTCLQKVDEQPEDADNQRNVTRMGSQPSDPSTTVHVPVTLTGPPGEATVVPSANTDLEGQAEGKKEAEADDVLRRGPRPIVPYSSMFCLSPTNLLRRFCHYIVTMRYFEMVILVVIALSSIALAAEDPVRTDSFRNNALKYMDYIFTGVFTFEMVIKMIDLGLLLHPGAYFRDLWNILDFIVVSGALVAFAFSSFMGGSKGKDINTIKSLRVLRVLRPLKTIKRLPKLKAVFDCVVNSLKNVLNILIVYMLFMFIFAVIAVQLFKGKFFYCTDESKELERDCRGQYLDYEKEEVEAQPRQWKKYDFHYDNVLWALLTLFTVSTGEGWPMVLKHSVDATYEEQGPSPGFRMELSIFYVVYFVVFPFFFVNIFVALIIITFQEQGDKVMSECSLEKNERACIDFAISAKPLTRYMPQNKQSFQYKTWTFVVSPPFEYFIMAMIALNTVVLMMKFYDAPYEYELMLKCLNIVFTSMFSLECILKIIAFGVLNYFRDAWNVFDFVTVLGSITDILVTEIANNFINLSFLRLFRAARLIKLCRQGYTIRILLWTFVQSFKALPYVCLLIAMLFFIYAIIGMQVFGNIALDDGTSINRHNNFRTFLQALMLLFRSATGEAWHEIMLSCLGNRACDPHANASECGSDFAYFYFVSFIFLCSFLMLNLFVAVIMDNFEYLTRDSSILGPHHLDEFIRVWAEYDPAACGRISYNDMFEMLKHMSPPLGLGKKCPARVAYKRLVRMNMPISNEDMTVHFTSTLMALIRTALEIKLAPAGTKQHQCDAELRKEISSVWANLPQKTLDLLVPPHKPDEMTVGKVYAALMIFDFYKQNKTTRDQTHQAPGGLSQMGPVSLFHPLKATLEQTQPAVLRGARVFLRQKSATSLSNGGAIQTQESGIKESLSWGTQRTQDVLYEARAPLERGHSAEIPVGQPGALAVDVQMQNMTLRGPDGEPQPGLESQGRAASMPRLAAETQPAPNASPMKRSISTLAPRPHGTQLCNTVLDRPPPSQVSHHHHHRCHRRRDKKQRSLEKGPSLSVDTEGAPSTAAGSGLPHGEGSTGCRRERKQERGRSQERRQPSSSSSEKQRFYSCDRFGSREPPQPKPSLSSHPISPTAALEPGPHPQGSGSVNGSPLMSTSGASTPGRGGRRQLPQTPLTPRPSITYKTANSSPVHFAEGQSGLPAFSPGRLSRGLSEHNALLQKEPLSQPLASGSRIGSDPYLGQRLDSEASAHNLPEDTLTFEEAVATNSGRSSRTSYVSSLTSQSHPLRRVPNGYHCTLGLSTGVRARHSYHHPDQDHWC
5-hydroxytryptamine receptor 2B, sequence (P41595 whole entry): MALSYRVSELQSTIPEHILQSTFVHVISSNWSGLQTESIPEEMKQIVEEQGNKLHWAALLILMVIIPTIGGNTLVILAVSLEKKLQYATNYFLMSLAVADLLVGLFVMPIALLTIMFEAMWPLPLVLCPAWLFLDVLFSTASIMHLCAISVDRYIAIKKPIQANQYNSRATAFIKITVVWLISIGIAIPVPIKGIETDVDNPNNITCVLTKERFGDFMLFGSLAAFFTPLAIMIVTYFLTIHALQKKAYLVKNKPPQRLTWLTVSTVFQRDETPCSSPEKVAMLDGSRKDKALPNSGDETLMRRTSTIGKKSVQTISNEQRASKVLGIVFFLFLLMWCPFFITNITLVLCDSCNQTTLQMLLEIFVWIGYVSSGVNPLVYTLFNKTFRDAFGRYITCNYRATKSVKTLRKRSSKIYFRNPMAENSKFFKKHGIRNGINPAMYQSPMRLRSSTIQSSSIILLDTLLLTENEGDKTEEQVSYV
Beta-3 adrenergic receptor, sequence (P13945 whole entry): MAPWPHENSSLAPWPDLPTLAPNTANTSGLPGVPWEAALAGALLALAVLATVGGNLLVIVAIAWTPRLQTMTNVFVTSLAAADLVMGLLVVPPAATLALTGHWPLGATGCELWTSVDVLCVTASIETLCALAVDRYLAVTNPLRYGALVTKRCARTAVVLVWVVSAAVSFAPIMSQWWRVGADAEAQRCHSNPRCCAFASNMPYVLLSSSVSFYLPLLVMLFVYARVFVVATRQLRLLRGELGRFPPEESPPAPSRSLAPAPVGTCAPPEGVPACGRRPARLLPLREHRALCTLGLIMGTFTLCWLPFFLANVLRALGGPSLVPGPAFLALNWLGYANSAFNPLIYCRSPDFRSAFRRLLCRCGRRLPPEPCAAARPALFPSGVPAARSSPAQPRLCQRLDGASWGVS
Neurotensin receptor type 1, sequence (P30989 whole entry): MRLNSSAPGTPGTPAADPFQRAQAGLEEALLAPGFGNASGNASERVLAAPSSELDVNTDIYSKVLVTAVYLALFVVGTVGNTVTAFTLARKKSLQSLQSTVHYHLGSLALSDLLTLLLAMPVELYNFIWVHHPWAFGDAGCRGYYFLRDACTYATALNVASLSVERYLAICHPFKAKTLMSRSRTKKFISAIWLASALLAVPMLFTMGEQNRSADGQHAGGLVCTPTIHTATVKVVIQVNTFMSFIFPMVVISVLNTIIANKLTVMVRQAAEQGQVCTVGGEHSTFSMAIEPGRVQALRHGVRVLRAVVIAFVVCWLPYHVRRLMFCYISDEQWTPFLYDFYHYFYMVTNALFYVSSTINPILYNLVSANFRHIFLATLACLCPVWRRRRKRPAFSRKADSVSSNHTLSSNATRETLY
Estrogen receptor beta, sequence (Q92731 whole entry): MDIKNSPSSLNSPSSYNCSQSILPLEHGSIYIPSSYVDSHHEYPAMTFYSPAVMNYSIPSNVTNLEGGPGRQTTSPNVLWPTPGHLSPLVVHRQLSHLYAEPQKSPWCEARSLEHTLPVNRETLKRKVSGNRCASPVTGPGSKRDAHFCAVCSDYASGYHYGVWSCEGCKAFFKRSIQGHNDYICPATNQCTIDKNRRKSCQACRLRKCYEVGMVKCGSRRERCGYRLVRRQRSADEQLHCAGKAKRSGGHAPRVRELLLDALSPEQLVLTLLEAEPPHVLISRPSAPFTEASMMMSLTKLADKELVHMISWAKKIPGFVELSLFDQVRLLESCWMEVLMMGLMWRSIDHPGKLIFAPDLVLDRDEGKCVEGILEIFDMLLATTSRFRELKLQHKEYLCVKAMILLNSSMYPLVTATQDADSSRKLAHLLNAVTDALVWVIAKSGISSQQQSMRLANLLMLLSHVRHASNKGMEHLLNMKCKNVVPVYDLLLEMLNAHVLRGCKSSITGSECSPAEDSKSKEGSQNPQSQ

Compound | AC50 [1] [µM] | AC50 [2] [µM] | AC50 [3] [µM] | AC50 [4] [µM] | AC50 [5] [µM] | AC50 (D(1A) dopamine receptor) [µM] | AC50 [6] [µM] | AC50 [7] [µM] | AC50 [8] [µM] | AC50 [9] [µM] | AC50 (Estrogen receptor beta) [µM] | AC50 (Substance-P receptor) [µM] | AC50 [10] [µM] | AC50 [11] [µM]
CO/N=C(\C(=O)N[C@@H]1C(=O)N2C(C(=O)O)=C(CSc3nc(=O)c(=O)[nH]n3C)CS[C@H]12)c1csc(N)n1 [CEFTRIAXONE] | > 30 | > 50 | – | – | – | – | – | – | – | – | – | – | – | –
COc1cc(N)c(Cl)cc1C(=O)NC1CCN(CCCOc2ccc(F)cc2)CC1OC (stereo unspecified) [CISAPRIDE] | – | > 50 | > 30 | > 30 | > 30 | > 10 | > 30 | > 30 | > 30 | > 10 | – | – | – | –
CCOC(=O)C(C)(C)Oc1ccc(Cl)cc1 [CLOFIBRATE] | – | – | > 30 | > 30 | > 30 | > 10 | > 30 | > 30 | > 30 | > 10 | > 30 | – | – | –
CCCCOc1ccc(C(=O)CCN2CCCCC2)cc1 [DYCLONINE] | – | – | > 30 | > 30 | > 30 | > 10 | > 30 | > 30 | > 30 | > 10 | > 30 | > 10 | > 10 | > 10
CC(C)NC[C@H](O)COc1ccc(CC(N)=O)cc1 [ESATENOLOL] | – | – | > 30 | > 30 | > 30 | – | > 30 | – | > 30 | > 10 | – | > 10 | – | > 10
NNC(=O)c1ccncc1 [ISONIAZID] | – | – | > 30 | > 30 | > 30 | > 10 | > 30 | > 30 | > 30 | > 10 | > 30 | > 10 | > 10 | > 10
COc1ccc(CN2CCN(C(c3ccc(F)cc3)c3ccc(F)cc3)CC2)c(OC)c1OC [LOMERIZINE] | – | 16 | – | – | – | – | – | – | – | – | – | – | – | –
O=C1Nc2ccc(Cl)cc2C(c2ccccc2Cl)=NC1O (stereo unspecified) [LORAZEPAM] | – | – | > 30 | > 30 | > 30 | > 10 | > 30 | > 30 | > 30 | > 10 | > 30 | > 10 | > 10 | > 10
Cc1ccnc2c1NC(=O)c1cccnc1N2C1CC1 [NEVIRAPINE] | – | – | > 30 | > 30 | > 30 | > 10 | > 30 | > 30 | > 30 | > 10 | > 30 | > 10 | > 10 | > 10
O=C(NCCO[N+](=O)[O-])c1cccnc1 [NICORANDIL] | > 30 | – | – | – | – | – | – | – | – | – | – | – | – | –
CO[C@H]1C[C@H](O[C@H]2CC[C@@]3(C)[C@H](CC[C@@H]4[C@@H]3CC[C@]3(C)[C@@H](C5=CC(=O)OC5)[C@@H](OC(C)=O)C[C@]43O)C2)O[C@@H](C)[C@@H]1O [OLEANDRIN] | > 30 | – | – | – | – | – | – | – | – | – | – | – | – | –
O=c1[nH]c2ccccc2n1CCCN1CCN(C(c2ccccc2)c2ccccc2)CC1 [OXATOMIDE] | > 30 | – | – | – | – | – | – | – | – | – | – | – | – | –
COc1cc2[nH]c(C)c(CCN3CCN(c4ccccc4)CC3)c2cc1OC [OXYPERTINE] | > 30 | – | – | – | – | – | – | – | – | – | – | – | – | –
Fc1ccc([C@@H]2CCNC[C@H]2COc2ccc3c(c2)OCO3)cc1 [PAROXETINE] | – | 25.4 | > 30 | > 30 | > 30 | > 10 | > 30 | > 30 | > 30 | > 10 | – | – | 11.9 | –
c1ccc(C2(N3CCCCC3)CCCCC2)cc1 [PHENCYCLIDINE] | > 30 | – | – | – | – | – | – | – | – | – | – | – | – | –
COc1cc(C(=O)OCc2cccc(COC(=O)c3cc(OC)c(OC)c(OC)c3)n2)cc(OC)c1OC [PIROZADIL] | > 30 | – | – | – | – | – | – | – | – | – | – | – | – | –
CCC(NC(C)C)C(O)c1ccc(O)c2[nH]c(=O)ccc12 (stereo unspecified) [PROCATEROL] | – | – | – | – | – | > 30 | – | – | – | – | – | – | – | –
CCC(=O)O[C@](Cc1ccccc1)(c1ccccc1)[C@H](C)CN(C)C [PROPOXYPHENE] | – | – | > 30 | > 30 | > 30 | > 10 | > 30 | > 30 | > 30 | > 10 | > 30 | > 10 | > 10 | > 10
CCc1nc(N)nc(N)c1-c1ccc(Cl)cc1 [PYRIMETHAMINE] | – | – | – | – | – | – | – | – | – | – | – | – | > 10 | –
O=c1c(O)c(-c2ccc(O)c(O)c2)oc2cc(O)cc(O)c12 [QUERCETIN] | – | – | > 30 | > 30 | > 30 | > 10 | > 30 | – | > 30 | > 10 | > 30 | – | 19.4 | –
CCN1CCCC1CNC(=O)c1cc(S(=O)(=O)CC)ccc1OC (stereo unspecified) [SULTOPRIDE] | > 30 | – | – | – | – | – | – | – | – | – | – | – | – | –
CCOC(=O)c1ccc(C#Cc2ccc3c(c2)C(C)(C)CCS3)nc1 [TAZAROTENE] | – | – | – | – | – | – | – | – | – | > 10 | – | – | – | –
CCOC(=O)[C@@H](N)Cc1ccc(-c2cc(O[C@H](c3ccc(Cl)cc3-n3ccc(C)n3)C(F)(F)F)nc(N)n2)cc1 [TELOTRISTAT ETHYL] | > 30 | > 1 | – | – | – | – | – | – | – | – | – | – | – | –
CCCCCCCC(=O)CC[C@@H]1[C@@H](C/C=C\CCCC(=O)OC(C)C)[C@@H](O)C[C@H]1O [UNOPROSTONE ISOPROPYL] | – | 27 | – | – | – | – | – | – | – | – | – | – | – | –
